According to the supplement of paper PMC11061612:

Assays:
Experiment in all cases: combination Emax (second highest fraction inhibited in the dose matrix, 72 h); higher = more inhibition; extreme values may be limits of the assay
[1] = tested on: SU-DHL-5 (B-Cell Non-Hodgkin's Lymphoma)
How it was run: (§1)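 Bliss excess equals the observed combination effect minus the expected value EA + EB − EA·EB, where EA and EB are the effects of each agent alone. Combination Emax is the second-highest inhibition within the matrix. Inhibition was scaled from CellTiter-Glo 2.0 luminescence, with 0 set by vehicle wells and 1 by blank wells, after 72 hours of two-drug dosing of cells plated in 1536-well plates.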

[2] = tested on: DAN-G (Pancreatic Carcinoma)
How it was run: as §1

[3] = tested on: G-361 (Melanoma)
How it was run: as §1

[4] = tested on: NCI-H661 (Non-Small Cell Lung Carcinoma)
How it was run: as §1

[5] = tested on: NCI-H929 (Plasma Cell Myeloma)
How it was run: as §1

[6] = tested on: NCI-H526 (Small Cell Lung Carcinoma)
How it was run: as §1

[7] = tested on: PC-3 (Prostate Carcinoma)
How it was run: as §1

[8] = tested on: MOLM-13 (Acute Myeloid Leukemia)
How it was run: as §1

[9] = tested on: DMS-114 (Small Cell Lung Carcinoma)
How it was run: as §1

[10] = tested on: NCI-H3122 (Lung Adenocarcinoma)
How it was run: as §1

[11] = tested on: KMS-12-BM (Plasma Cell Myeloma)
How it was run: as §1

[12] = tested on: COR-L279 (Small Cell Lung Carcinoma)
How it was run: as §1

[13] = tested on: MOG-G-CCM (Low Grade Glioma)
How it was run: as §1

[14] = tested on: M059J (Glioblastoma)
How it was run: as §1

[15] = tested on: MN-60 (B-Lymphoblastic Leukemia)
How it was run: as §1

[16] = tested on: CW-2 (Colorectal Carcinoma)
How it was run: as §1

[17] = tested on: NCCIT (Other Solid Carcinomas)
How it was run: as §1

[18] = tested on: NCI-H2731 (Mesothelioma)
How it was run: as §1

[19] = tested on: ST486 (Burkitt's Lymphoma)
How it was run: as §1

[20] = tested on: SK-GT-2 (Gastric Carcinoma)
How it was run: as §1

| Compound | combination Emax [1] | combination Emax [2] | combination Emax [3] | combination Emax [4] | combination Emax [5] | combination Emax [6] | combination Emax [7] | combination Emax [8] | combination Emax [9] | combination Emax [10] | combination Emax [11] | combination Emax [12] | combination Emax [13] | combination Emax [14] | combination Emax [15] | combination Emax [16] | combination Emax [17] | combination Emax [18] | combination Emax [19] | combination Emax [20] |
| --- | --- | --- | --- | --- | --- | --- | --- | --- | --- | --- | --- | --- | --- | --- | --- | --- | --- | --- | --- | --- |
| COc1nnc2ccc(N3CCC(c4ccc(OCCN5CCN(C)C(=O)[C@H]5C)cc4)CC3)nn12 [AZD5153] + CC1(C)CCC(CN2CCN(c3ccc(C(=O)NS(=O)(=O)c4ccc(NCC5CCOCC5)c([N+](=O)[O-])c4)c(Oc4cnc5[nH]ccc5c4)c3)CC2)=C(c2ccc(Cl)cc2)C1 [Venetoclax] (first compound max 1 µM, 7x7, partner max 1 µM) | 0.978 | 0.268 | 0.617 | 0.264 | 0.951 | 0.973 | 0.366 | 1 | 0.607 | 0.633 | 1 | 0.663 | 0.54 | 0.756 | 0.692 | 0.513 | 0.807 | 0.432 | 0.929 | 0.256 |
| COc1nnc2ccc(N3CCC(c4ccc(OCCN5CCN(C)C(=O)[C@H]5C)cc4)CC3)nn12 [AZD5153] + CCN(CCO)CCCOc1ccc2c(Nc3cc(CC(=O)Nc4cccc(F)c4)[nH]n3)ncnc2c1 [AZD2811] (first compound max 1 µM, 7x7, partner max 1 µM) | 0.999 | 0.409 | 0.649 | 0.375 | 0.939 | 0.944 | 0.39 | 1 | 0.637 | 0.668 | 0.998 | 0.907 | 0.571 | 0.751 | 0.74 | 0.542 | 0.832 | 0.489 | 0.936 | 0.302 |
| COc1nnc2ccc(N3CCC(c4ccc(OCCN5CCN(C)C(=O)[C@H]5C)cc4)CC3)nn12 [AZD5153] + C[C@@H]1COCCN1C2=NC(=NC(=C2)C3(CC3)[S@](=N)(=O)C)C4=C5C=CNC5=NC=C4 [AZD6738] (first compound max 1 µM, 7x7, partner max 10 µM) | 1 | 0.726 | 0.872 | 0.698 | 0.991 | 0.947 | 0.5 | 1 | 0.733 | 0.757 | 1 | 0.972 | 0.702 | 0.74 | 0.8 | 0.722 | 0.901 | 0.699 | 0.973 | 0.535 |
| COc1nnc2ccc(N3CCC(c4ccc(OCCN5CCN(C)C(=O)[C@H]5C)cc4)CC3)nn12 [AZD5153] + Cc1c2c(nn1C)CSCc1cc(n(C)n1)CSc1cc(c3ccccc3c1)OCCCc1c(C(=O)O)n(C)c3c-2c(Cl)ccc13 [AZD5991] (first compound max 1 µM, 7x7, partner max 1 µM) | 1 | 0.337 | 0.997 | 0.891 | 1 | 1 | 0.376 | 1 | 1 | 0.691 | 1 | 0.982 | 0.652 | 0.864 | 0.719 | 0.527 | 0.998 | 0.528 | 0.978 | 0.319 |
| COc1nnc2ccc(N3CCC(c4ccc(OCCN5CCN(C)C(=O)[C@H]5C)cc4)CC3)nn12 [AZD5153] + Cn1cnc2c(F)c(Nc3ccc(Br)cc3Cl)c(C(=O)NOCCO)cc21 [Selumetinib] (first compound max 1 µM, 7x7, partner max 10 µM) | 1 | 0.527 | 0.766 | 0.305 | 1 | 0.941 | 0.299 | 1 | 0.614 | 0.68 | 1 | 0.682 | 0.548 | 0.618 | 0.78 | 0.565 | 0.786 | 0.39 | 0.994 | 0.479 |
| Cc1c2c(nn1C)CSCc1cc(n(C)n1)CSc1cc(c3ccccc3c1)OCCCc1c(C(=O)O)n(C)c3c-2c(Cl)ccc13 [AZD5991] + C1CN(CCC1(C(=O)N[C@@H](CCO)C2=CC=C(C=C2)Cl)N)C3=NC=NC4=C3C=CN4 [Capivasertib] (first compound max 1 µM, 7x7, partner max 3 µM) | 1 | 0.401 | 1 | 0.755 | 1 | 0.47 | 0.287 | 1 | 0.911 | 0.419 | 1 | 0.579 | 0.326 | 0.44 | 0.339 | 0.179 | 0.82 | 0.21 | 0.829 | 0.132 |
